# PMC7910569 (Scientific Data, 2021)
# Where two headings read alike, the source gives them in different places.
# Tests used:
# [1] = tested on: SARS-CoV-2; details: for anti-cytopathic activity against SARS-CoV-2 (in words): Caco-2, hits / concentration-response screen
# [2] = tested on: SARS-CoV-2; experiment: microbe, parasite or virus in culture; details: Severe acute respiratory syndrome coronavirus 2, Caco-2, 48 h, read-out: Results SARS-CoV-2 (Caco-2) IC50
# [3] = in vitro; details: human, Caco-2
# [4] = tested on: SARS-CoV-2; assay type: cell-based; details: 10 µM
# Protocol: For the primary screen, the final compound concentration was 10 µM (in 0.1% DMSO) and each compound was tested in singlicate. Concentration-response profiling of primary hits was performed in triplicate with eight concentrations ranging from 20 µM to 20 nM (half-log dilution factor, 0.1% DMSO final). For initial dose response studies, compounds were tested on three different plates to minimise the influence of plate effects. Later dose response studies at lower concentrations were also done on the same plate. Following the addition of compounds, cells were immediately infected with SARS-CoV-2 at a multiplicity of infection (MOI) of 0.01. Positive controls were prepared with the virus but no compounds, and negative controls were prepared without the virus. After 48 h, the medium was removed and cells were fixed in 3% paraformaldehyde in phosphate-buffered saline (PBS). The plates were sealed and disinfected to inactivate the virus[13] then screened by high-content imaging using the Operetta CLS platform (PerkinElmer). The image data were processed as described below and deposited on the Image Data Resource[14].
# Images were acquired using a 10× objective with nine imaged fields per well in label-free mode by digital phase contrast (DPC). […] This method improves the signal-to-noise ratio and allows for image segmentation and single-cell analysis. The images were analysed using PerkinElmer Columbus v2.9.0. The analysis sequence started with cell detection (method c, common threshold 0.05, area >100 µm^2, splitting coefficient 6.5, individual threshold 0.05, contrast >0.05) and was followed by calculating morphology, intensity and position properties as well as cell confluence (Fig. 2). The data were deposited on the Image Data Resource[14]. Although we used cell confluence as a read out parameter additional parameters were calculated and deposited as well. These parameters can be used for further analysis to include parameters related to cellular stress or cytoskeletal impairment, both critical for viral replication. Well-level data were analysed in ActivityBase (IDBS) and R v3.6.1, using cell confluence as final read out parameter. […] Outliers were eliminated according to the three-sigma method. Plate-level statistical performance was assessed using the Z’factor calculation with values between 0.35 and 1.0 representing an acceptable assay. Data for the primary screen were deposited on ChEMBL[17].Concentration-response curves were fitted in GraphPad Prism v8.0.0 (GraphPad Software) using a four-parameter […] (least squares fit). Data for the dose-response screen were deposited on ChEMBL[18].
# Cytopathicity assays were conducted in 96 well Cellstar plates (Greiner bio-one) using 4 wells with cells without virus (negative control) and 4 wells with cells and with virus (positive control). A three-sigma invalidation was performed on the raw data of the controls on each plate, resulting in maximal one invalidated well per plate during primary screening. During hit confirmation and dose-response studies no wells were eliminated as all wells were within three-sigma. After invalidation the plate specific z’factor was calculated and the plate was removed if quality criteria (z’factor > 0.35) were not met. Plates passing quality control were analysed and normalized as specified above. Hits were identified by having at least 75% efficiency in blocking viral cytopathicity at 10 µM.
# [5] = tested on: SARS-CoV; details: Calu-3; read-out: Reports SARS-CoV (Vero-E6 or Calu-3) IC50; cited from earlier work
# [6] = tested on: SARS-CoV-2; details: Vero-E6, read-out: Reports SARS-CoV-2 (Vero-E6) IC50, cited from earlier work
# [7] = tested on: MERS-CoV; details: Calu-3; read-out: Reports MERS (Vero-6, Calu-3 or BHK21) IC50; cited from earlier work
# [8] = tested on: MERS-CoV; details: read-out: Reports MERS (Vero-E6) IC50, cited from earlier work
# [9] = tested on: SARS-CoV; details: read-out: Reports SARS-CoV (Vero-E6) IC50, cited from earlier work
# [10] = singlicate, Caco-2, 48 h, hit = at least 75% inhibition of cytopathicity
compound,measurement,setting,value
Cc1c(C(=O)Nc2ccc(N3C[C@@H](C)O[C@@H](C)C3)nc2)cccc1-c1ccc(OC(F)(F)F)cc1 [LDE225],anti-cytopathic activity against SARS-CoV-2 (in words),[1],identified
"O[C@@H](COc1cccc2ncccc12)CN1CCN([C@@H]2c3ccccc3[C@@H]3[C@H](c4ccccc42)C3(F)F)CC1 [LY335979, zosuquidar]",anti-cytopathic activity against SARS-CoV-2 (in words),[1],identified
CC(=NNC(=S)N1CC2CCC(CC2)C1)c1ccccn1 [NSC319276],anti-cytopathic activity against SARS-CoV-2 (in words),[1],moderately potent
CNS(=O)(=O)Nc1nccc(Cc2c(C)c3ccc(Oc4ncccn4)cc3oc2=O)c1F [RO5126766],IC50,[2],18200 nM
same,CC50,[3],> 20000 nM
Cc1cccc2c1CC[C@H](CN1CCC(c3c(Cl)cccc3Cl)CC1)C[C@@H]2O [SB-612111],IC50,[2],770 nM
CCN(CC)Cc1cc(Nc2ccnc3cc(Cl)ccc23)ccc1O [amodiaquine],activity in the primary screen (in words),[4]; [10],inactive
N#CC(c1ccnc(OCc2ccc(CN3CCOCC3)cc2)n1)c1nc2ccccc2s1 (stereo not drawn) [bentamapimod],IC50,[2],5900 nM
same,CC50 at 48 h,[3],> 20000 nM
CN(C)C(=O)COC(=O)Cc1ccc(OC(=O)c2ccc(NC(=N)N)cc2)cc1 [camostat],IC50,[5],~1000 nM
same,IC50,[2],< 1000 nM
same,IC50,[6]; ref 23,> 50000 nM
same,IC50,[6]; ref 24,1000 nM
same,IC50,[7],1000 nM
C[C@H](CS)C(=O)N1CCC[C@H]1C(=O)O [captopril],activity in the primary screen (in words),[4]; [10],did not identify
CCN(CC)CCCC(C)Nc1ccnc2cc(Cl)ccc12 (stereo not drawn) [chloroquine diphosphate],activity in the primary screen (in words),[4]; 48 h,inactive
CCN(CC)CCCC(C)Nc1ccnc2cc(Cl)ccc12 (stereo not drawn) [chloroquine],anti-cytopathic activity against SARS-CoV-2 (in words),[1],not observed
same,IC50,"[8]; Vero-E6, ref 53",6280 nM
same,IC50,[2],> 20000 nM
same,IC50,"[9]; Vero-E6, ref 56",4400 nM
same,IC50,[6]; ref 22,1130 nM
same,IC50,[6]; ref 55,46800 nM
C=C(c1ccccc1OCc1cccc(Cl)c1)n1ccnc1 [cloconazole],IC50,[1]; read-out: Results SARS-CoV-2 (Caco-2) IC50,≥ 20000 nM
C[C@@H]1C[C@@H]([C@H](O)CC2CC(=O)NC(=O)C2)C(=O)[C@@H](C)C1 [cycloheximide],IC50,[8],160 nM
same,IC50,[2],580 ± 20 nM
same,IC50,[9],43 nM
same,CC50 at 48 h,[3],> 20000 nM
CC(C)CN(C[C@@H](O)[C@H](Cc1ccccc1)NC(=O)O[C@H]1CO[C@H]2OCC[C@H]21)S(=O)(=O)c1ccc(N)cc1 [darunavir],activity in the primary screen (in words),[4]; [10],inactive
CC[C@H]1CN2CCc3cc(OC)c(OC)cc3[C@@H]2C[C@@H]1C[C@H]1NCCc2cc(OC)c(OC)cc21 [emetine],CI (cytotoxicity index),[1]; human,2
same,IC50,"[8]; Vero-E6, ref 54",80 nM
same,IC50,[2],520 ± 90 nM
same,IC50,"[9]; Vero-E6, ref 53",51 nM
same,CC50,[3],1130 ± 500 nM
